Patent US4571408A, “α,β-Dihydropolyprenyl derivatives for treating hepatitis” (Eisai Co., Ltd., priority 1980, dated 1986)

Experiments:
rats (Wistar strain) = assay: Toxicity (oral administration to rats); type: in vivo; conditions: orally, 4,000 mg./kg., ten rats (Wistar strain), suspended in 5% aqueous gum arabic solution
Method: Each of the above-listed compounds, A, B, C and D was suspended in a 5% aqueous gum arabic solution and then was administered orally to ten rats (Wistar strain) in the dosage of 4,000 mg./kg.

[1] = tested on: liver disease (hepatitis) induced by D-galactosamine; assay: Activity against liver disease (hepatitis) induced by D-galactosamine; type: in vivo, rats (SD strain); conditions: test compound orally 400 mg./kg. each time (0, 4, 10, 24 h); D-galactosamine hydrochloride s.c. 200 mg./kg. (4, 10, 24 h); blood collection at 28 h; nine rats per group
Method: Activity against liver disease (hepatitis) induced by D-galactosamine
D-Galactosamine hydrochloride and the above-listed compound were administered (1) subcutaneously in the dosage of 200 mg./kg. each time and (2) orally in the dosage of 400 mg./kg. each time, respectively, to rats (SD strain, weight: approximately 250 g.) according to the schedule described hereinafter. After completion of the administrations, the blood was collected from the rats and there were measured the GOT value, GPT value and alkali phosphotase value, all of which are indicative of the degree of liver disease.
Each test compound was administered in the form of a suspension thereof in a 5% aqueous gum arabic solution. The D-galactosamine hydrochloride was administered in the form of an aqueous solution thereof in distilled water adjusted to pH 7 by addition of potassium hydroxide.
There were provided the test compound groups (nine rats per each group) in which the rats were administered with the test compound and with D-galactosamine hydrochloride; a control group (fourteen rats) in which the rats were administered with a plain 5% aqueous gum arabic solution free of the test compound and with D-galactosamine hydrochloride; and a normal group (eight rats) in which the rats were not administered with either the test compound or D-galactosamine hydrochloride.
4 test compound and D-galactosamine
10 test compound and D-galactosamine
24 test compound and D-galactosamine

Row | Structure (SMILES) | Deaths of the rats (rats (Wistar strain)) | Alkali phosphatase value [1] | GOT value [1] | GPT value [1]
1 | CC(C)=CCC/C(C)=C/CC/C(C)=C/CCC(C)CC(=O)O (stereo not shown) [Compound A, (E, E)-3,7,11,15-tetramethyl-6,10,14-hexadecatrienoic acid] | No deaths of the rats were observed | 56.2 KA - u | 312.4 carmen unit | 208.3 carmen unit
2 | CCOC(=O)CC(C)CC/C=C(\C)CC/C=C(\C)CCC=C(C)C (stereo not shown) [Compound B, ethyl (E, E)-3,7,11,15-tetramethyl-6,10,14-hexadecatrienoate] | No deaths of the rats were observed | 55.8 KA - u | 307.1 carmen unit | 199.7 carmen unit
3 | CC(C)=CCC/C(C)=C/CC/C(C)=C/CCC(C)CCO (stereo not shown) [Compound C, (E, E)-3,7,11,15-tetramethyl-6,10,14-hexadecatrien-1-ol] | No deaths of the rats were observed | 54.2 KA - u | 337.7 carmen unit | 185.6 carmen unit
4 | CC(=O)OCCC(C)CC/C=C(\C)CC/C=C(\C)CCC=C(C)C (stereo not shown) [Compound D, (E, E)-3,7,11,15-tetramethyl-6,10,14-hexadecatrienyl acetate] | No deaths of the rats were observed | 53.5 KA - u | 315.3 carmen unit | 178.7 carmen unit
